Measurements: US11629171B2, “Beta-hairpin peptidomimetics” (POLYPHOR AG, priority 2017, dated 2023)
Values after ≈ are worked out from the molar mass of the structure shown. Where a SMILES comes first, the peptide text is derived from it. Bridges are numbered along the chain shown (N, C = ends). Roman numbers before positions name the chains, in order. [ ]: non-standard residue; d: D form. The star is where a group is joined. Thr(ol) = C[C@@H](O)[C@H](N)CO; Pen = CC(C)(S)[C@H](N)C(=O)O; Tle = CC(C)(C)[C@H](N)C(=O)O; Hiv = CC(C)[C@H](O)C(=O)O; dDab = NCC[C@@H](N)C(=O)O; hSer = N[C@@H](CCO)C(=O)O; NHCH(CH2OH)2 = OCC(CO)N*; Orn = NCCC[C@H](N)C(=O)O; Dab = NCC[C@H](N)C(=O)O; Dap = NC[C@H](N)C(=O)O

Key:
Type in all cases: cell-based
Escherichia coli 926415 = conditions: 926415
Outline: (§1)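 Cation-adjusted MH-II broth, 0.002% polysorbate 80, inoculum near 10^6 CFU/mL. MIC read visually after 18-20 h, 35° C; units μg/mL.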

[1] = system: Acinetobacter baumannii 872842; conditions: 872842
Outline: as §1

[2] = system: Enterobacter cloacae 848840; conditions: 848840
Outline: as §1

[3] = system: Escherichia coli ATCC 25922; conditions: ATCC 25922
Outline: as §1

[4] = system: Acinetobacter baumannii DSM 30008; conditions: DSM 30008
Outline: as §1

[5] = system: Pseudomonas aeruginosa ATCC 27853; conditions: ATCC 27853
Outline: as §1

[6] = system: Klebsiella pneumoniae SSI #3010; conditions: SSI #3010
Outline: as §1

[7] = system: Klebsiella pneumoniae 968733; conditions: 968733
Outline: as §1

[8] = system: human red blood cells (hRBC); test: Hemolysis; conditions: red cells of human, 1 h, 200
Outline: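 Washed fresh hRBC (20% v/v) were incubated with peptides at 200 μg/mL for 1 h at 37° C with shaking at 300 rpm. Supernatant OD540 was read after centrifugation and dilution, blank-corrected, and expressed as percent of the 2% Triton X-100 (100% lysis) control; PBS with 10% water gave 0%.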

## CC(C)C[C@@H]1NC(=O)[C@@H](CC(C)C)NC(=O)[C@H](CCN)NC(=O)[C@@H](NC(=O)[C@H](CCN)NC(=O)[C@@H](NC(=O)[C@H](CCN)NC(=O)CC[C@@H]2NC(=O)[C@@H](NC(=O)[C@H](Cc3ccc(O)cc3)NC(=O)[C@H](CCC(=O)O)NC(=O)[C@@H](O)C(C)C)CSSC[C@@H](C(=O)N[C@H](C(=O)N[C@@H](CCN)C(=O)N[C@H](CO)[C@@H](C)O)C(C)(C)C)NC(=O)[C@H](Cc3c[nH]c4ccccc34)NC(=O)[C@H]([C@@H](C)O)NC(=O)[C@@H](CCN)NC2=O)[C@@H](C)O)CCNC(=O)[C@H]([C@@H](C)O)NC(=O)[C@H](CCN)NC(=O)[C@H](CCN)NC1=O [Ex. 190] (I: H-[Hiv]EYCE[dDab]TWC[Tle][Dab][Thr(ol)] / II: [Dab]T[Dab][Dab][Dab][dL]L[Dab][Dab]T; disulfide I:4-I:9; amide I:5-II:N; lactam II:4-II:C)
Escherichia coli 926415
  MIC: 1 µg/mL (≈ 0.409 µM)
[1]
  MIC: 0.5 µg/mL (≈ 0.205 µM)
[2]
  MIC: 0.5 µg/mL (≈ 0.205 µM)
[3]
  MIC: 0.0625 µg/mL (≈ 0.0256 µM)
[4]
  MIC: 0.0625 µg/mL (≈ 0.0256 µM)
[5]
  MIC: 0.25 µg/mL (≈ 0.102 µM)
[6]
  MIC: 0.125 µg/mL (≈ 0.0512 µM)
[7]
  MIC: 4 µg/mL (≈ 1.64 µM)
[8]
  Hemolysis at 200 μg/mL: <1%

## CC(C)C[C@@H]1NC(=O)[C@@H](CC(C)C)NC(=O)[C@H](CCN)NC(=O)[C@@H](NC(=O)[C@H](CCN)NC(=O)[C@@H](NC(=O)[C@H](CCN)NC(=O)CC[C@@H]2NC(=O)[C@@H](NC(=O)[C@H](Cc3ccc(O)cc3)NC(=O)[C@H](CCN)NC(=O)[C@@H](O)C(C)C)CSSC[C@@H](C(=O)N[C@H](C(=O)N[C@@H](CCC(=O)O)C(=O)N[C@H](CO)[C@@H](C)O)C(C)(C)C)NC(=O)[C@H](Cc3c[nH]c4ccccc34)NC(=O)[C@H]([C@@H](C)O)NC(=O)[C@@H](CCN)NC2=O)[C@@H](C)O)CCNC(=O)[C@H]([C@@H](C)O)NC(=O)[C@H](CCN)NC(=O)[C@H](CCN)NC1=O [Ex. 191] (I: H-[Hiv][Dab]YCE[dDab]TWC[Tle]E[Thr(ol)] / II: [Dab]T[Dab][Dab][Dab][dL]L[Dab][Dab]T; disulfide I:4-I:9; amide I:5-II:N; lactam II:4-II:C)
Escherichia coli 926415
  MIC: 1 µg/mL (≈ 0.409 µM)
[1]
  MIC: 0.5 µg/mL (≈ 0.205 µM)
[2]
  MIC: 0.5 µg/mL (≈ 0.205 µM)
[3]
  MIC: 0.125 µg/mL (≈ 0.0512 µM)
[4]
  MIC: 0.125 µg/mL (≈ 0.0512 µM)
[5]
  MIC: 0.25 µg/mL (≈ 0.102 µM)
[6]
  MIC: 0.25 µg/mL (≈ 0.102 µM)
[7]
  MIC: 2 µg/mL (≈ 0.819 µM)
[8]
  Hemolysis at 200 μg/mL: 1%

## CC(C)C[C@@H]1NC(=O)[C@@H](CC(C)C)NC(=O)[C@H](CCN)NC(=O)[C@@H](NC(=O)[C@H](CCN)NC(=O)[C@@H](NC(=O)[C@H](CCN)NC(=O)CC[C@@H]2NC(=O)[C@@H](NC(=O)[C@H](Cc3ccc(O)cc3)NC(=O)[C@@H](NC(=O)[C@@H](O)C(C)C)[C@@H](C)O)CSSC[C@@H](C(=O)N[C@H](C(=O)N[C@@H](C)C(=O)N[C@H](CO)[C@@H](C)O)C(C)(C)C)NC(=O)[C@H](Cc3c[nH]c4ccccc34)NC(=O)[C@H](CCO)NC(=O)[C@@H](CCN)NC2=O)[C@@H](C)O)CCNC(=O)[C@H]([C@@H](C)O)NC(=O)[C@H](CCN)NC(=O)[C@H](CCN)NC1=O [Ex. 193] (I: H-[Hiv]TYCE[dDab][hSer]WC[Tle]A[Thr(ol)] / II: [Dab]T[Dab][Dab][Dab][dL]L[Dab][Dab]T; disulfide I:4-I:9; amide I:5-II:N; lactam II:4-II:C)
Escherichia coli 926415
  MIC: 0.5 µg/mL (≈ 0.21 µM)
[1]
  MIC: 0.5 µg/mL (≈ 0.21 µM)
[2]
  MIC: 0.5 µg/mL (≈ 0.21 µM)
[3]
  MIC: 0.125 µg/mL (≈ 0.0524 µM)
[4]
  MIC: 0.0625 µg/mL (≈ 0.0262 µM)
[5]
  MIC: 0.25 µg/mL (≈ 0.105 µM)
[6]
  MIC: 0.25 µg/mL (≈ 0.105 µM)
[7]
  MIC: 0.5 µg/mL (≈ 0.21 µM)
[8]
  Hemolysis at 200 μg/mL: <1%

## CC(C)C[C@@H]1NC(=O)[C@@H](CC(C)C)NC(=O)[C@H](CCN)NC(=O)[C@@H](NC(=O)[C@H](CCN)NC(=O)[C@@H](NC(=O)[C@H](CCN)NC(=O)CC[C@@H]2NC(=O)[C@@H](NC(=O)[C@H](Cc3ccc(O)cc3)NC(=O)[C@@H](NC(=O)[C@@H](O)C(C)C)[C@@H](C)O)C(C)(C)SSC[C@@H](C(=O)N[C@H](C(=O)N[C@@H](C)C(=O)N[C@H](CO)[C@@H](C)O)C(C)(C)C)NC(=O)[C@H](Cc3c[nH]c4ccccc34)NC(=O)[C@H](CCO)NC(=O)[C@@H](CCN)NC2=O)[C@@H](C)O)CCNC(=O)[C@H]([C@@H](C)O)NC(=O)[C@H](CCN)NC(=O)[C@H](CCN)NC1=O [Ex. 194] (I: H-[Hiv]TY[Pen]E[dDab][hSer]WC[Tle]A[Thr(ol)] / II: [Dab]T[Dab][Dab][Dab][dL]L[Dab][Dab]T; disulfide I:4-I:9; amide I:5-II:N; lactam II:4-II:C)
Escherichia coli 926415
  MIC: 0.5 µg/mL (≈ 0.207 µM)
[1]
  MIC: 0.25 µg/mL (≈ 0.104 µM)
[2]
  MIC: 0.125 µg/mL (≈ 0.0518 µM)
[3]
  MIC: 0.0625 µg/mL (≈ 0.0259 µM)
[4]
  MIC: 0.0625 µg/mL (≈ 0.0259 µM)
[5]
  MIC: 0.125 µg/mL (≈ 0.0518 µM)
[6]
  MIC: 0.0625 µg/mL (≈ 0.0259 µM)
[7]
  MIC: 0.25 µg/mL (≈ 0.104 µM)
[8]
  Hemolysis at 200 μg/mL: <1%

## CC(C)C[C@@H]1NC(=O)[C@@H](CC(C)C)NC(=O)[C@H](CCN)NC(=O)[C@@H](NC(=O)[C@H](CN)NC(=O)[C@@H](NC(=O)[C@H](CCN)NC(=O)CC[C@@H]2NC(=O)[C@@H](NC(=O)[C@H](Cc3ccc(O)cc3)NC(=O)[C@@H](NC(=O)[C@@H](O)C(C)C)[C@@H](C)O)CSSC[C@@H](C(=O)N[C@H](C(=O)N[C@@H](C)C(=O)NC(CO)CO)C(C)(C)C)NC(=O)[C@H](Cc3c[nH]c4ccccc34)NC(=O)[C@H](CO)NC(=O)[C@@H](CCN)NC2=O)[C@@H](C)O)CCNC(=O)[C@H]([C@@H](C)O)NC(=O)[C@H](CCN)NC(=O)[C@H](CCN)NC1=O [Ex. 197] (I: H-[Hiv]TYCE[dDab]SWC[Tle]A-{NHCH(CH2OH)2} / II: [Dab]T[Dap][Dab][Dab][dL]L[Dab][Dab]T; disulfide I:4-I:9; amide I:5-II:N; lactam II:4-II:C)
Escherichia coli 926415
  MIC: 0.5 µg/mL (≈ 0.213 µM)
[1]
  MIC: 0.25 µg/mL (≈ 0.107 µM)
[2]
  MIC: 0.25 µg/mL (≈ 0.107 µM)
[3]
  MIC: 0.0625 µg/mL (≈ 0.0267 µM)
[4]
  MIC: 0.0625 µg/mL (≈ 0.0267 µM)
[5]
  MIC: 0.125 µg/mL (≈ 0.0533 µM)
[6]
  MIC: 0.125 µg/mL (≈ 0.0533 µM)
[7]
  MIC: 0.5 µg/mL (≈ 0.213 µM)
[8]
  Hemolysis at 200 μg/mL: <1%

## CC(=O)N[C@H](C(=O)N[C@H](C(=O)N[C@@H](Cc1ccc(O)cc1)C(=O)N[C@H]1CSSC[C@@H](C(=O)N[C@H](C(=O)N[C@@H](CCN)C(=O)N[C@H](C(N)=O)C(C)C)C(C)(C)C)NC(=O)[C@H](Cc2c[nH]c3ccccc23)NC(=O)[C@H](CO)NC(=O)[C@@H](CCN)NC(=O)[C@H](CCC(=O)N[C@@H](CCN)C(=O)N[C@H](C(=O)N[C@@H](CN)C(=O)N[C@H]2CCNC(=O)[C@H]([C@@H](C)O)NC(=O)[C@H](CCN)NC(=O)[C@H](CCN)NC(=O)[C@H](CC(C)C)NC(=O)[C@@H](CC(C)C)NC(=O)[C@H](CCN)NC2=O)[C@@H](C)O)NC1=O)[C@@H](C)O)C(C)C [Ex. 206] (I: Ac-VTYCE[dDab]SWC[Tle][Dab]V-NH2 / II: [Dab]T[Dap][Dab][Dab][dL]L[Dab][Dab]T; disulfide I:4-I:9; amide I:5-II:N; lactam II:4-II:C)
Escherichia coli 926415
  MIC: 0.0625 µg/mL (≈ 0.0256 µM)
[1]
  MIC: 0.0625 µg/mL (≈ 0.0256 µM)
[2]
  MIC: 0.125 µg/mL (≈ 0.0513 µM)
[3]
  MIC: 0.03125 µg/mL (≈ 0.0128 µM)
[4]
  MIC: 0.0625 µg/mL (≈ 0.0256 µM)
[5]
  MIC: 0.125 µg/mL (≈ 0.0513 µM)
[6]
  MIC: 0.0625 µg/mL (≈ 0.0256 µM)
[7]
  MIC: 0.5 µg/mL (≈ 0.205 µM)
[8]
  Hemolysis at 200 μg/mL: 1%

## CC(C)C[C@@H]1NC(=O)[C@@H](CC(C)C)NC(=O)[C@H](CCN)NC(=O)[C@@H](NC(=O)[C@H](CN)NC(=O)[C@@H](NC(=O)[C@H](CCN)NC(=O)CC[C@H]2NC(=O)[C@H](CCCN)NC(=O)[C@@H](NC(=O)[C@H](Cc3ccc(O)cc3)NC(=O)[C@@H](NC(=O)[C@@H](O)C(C)C)[C@@H](C)O)CSSC[C@@H](C(=O)N[C@H](C(=O)N[C@@H](C)C(=O)N[C@H](CO)[C@@H](C)O)C(C)(C)C)NC(=O)[C@H](Cc3c[nH]c4ccccc34)NC(=O)[C@H]([C@@H](C)O)NC2=O)[C@@H](C)O)CCNC(=O)[C@H]([C@@H](C)O)NC(=O)[C@H](CCN)NC(=O)[C@H](CCN)NC1=O [Ex. 210] (I: H-[Hiv]TYC[Orn][dE]TWC[Tle]A[Thr(ol)] / II: [Dab]T[Dap][Dab][Dab][dL]L[Dab][Dab]T; disulfide I:4-I:9; amide I:6-II:N; lactam II:4-II:C)
Escherichia coli 926415
  MIC: 2 µg/mL (≈ 0.838 µM)
[1]
  MIC: 0.5 µg/mL (≈ 0.21 µM)
[2]
  MIC: 2 µg/mL (≈ 0.838 µM)
[3]
  MIC: 0.125 µg/mL (≈ 0.0524 µM)
[4]
  MIC: 0.25 µg/mL (≈ 0.105 µM)
[5]
  MIC: 0.25 µg/mL (≈ 0.105 µM)
[6]
  MIC: 0.25 µg/mL (≈ 0.105 µM)
[7]
  MIC: 2 µg/mL (≈ 0.838 µM)
[8]
  Hemolysis at 200 μg/mL: <1%
